Measurements taken from patent US11135163B2, “Peptide hydrogel properties and its applications” (Kansas State University Research Foundation, priority 2014, dated 2021).

Legend:
[1] = test system: Male Wistar rats; assay: In vivo hemostatic efficiency, cut rat tail model; details: all percent concentrations of h9e peptide solution
Description: Similar to the method used by Mortazavi et al., in this study 30 rats were divided randomly into 5 groups of 6 animals each. […] Male Wistar rats were kept on AIN-93 diet with free access to water, under 12-h light-dark cycles, for one week. Before excising the tail, the rats were first anesthetized and maintained with 3% isoflurane until the eyelid closure reflex was lost and there was no reactive reflex in response to a toe pinch. In order to maintain an appropriate body temperature during anesthesia, a circulating water blanket was used at a temperature of 41-43° C. Following anesthesia, animals' tails were cut off at a thickness of 5 mm using a pair of mortuary scissors. The cut tail was immediately inserted into a small vial containing the appropriate treatment. The 1st group received topical saline solution (negative control) and the 2nd to 4th groups received topical h9e peptide solution at 1, 3, or 5 wt %, respectively. The 5th group received a topical application of a commercially available hemostatic agent as a positive control (Moore Medical CELOX* Hemostatic Granules). After treatment with above mentioned agents, the volume of blood lost was measured using a scaled test-tube. The bleeding time was measured using a stop watch. At the conclusion of the study, the rats were sacrificed using a CO2 chamber.

[2] = test system: Rat ESCs and iPSCs; assay: Stem cell 3D culture in h9e hydrogel; format: cell-based
Description: Rat PSCs: Animal use was approved by the KSU Institutional Animal Care and Use Committee (protocol #3168). Rat ESCs were derived in-house from Dark Agouti rats and characterized following the methods described in previous studies. Low passage ESCs were thawed, expanded one passage in 2D on MEF feeders, and then used in these experiments. Rat iPSCs were generated from Fischer 344 rat embryonic fibroblasts using a mouse OKSM STEMCCA lentiviral reprogramming vector according to the manufacturer's protocol (Millipore, SCR513).
3D cell culture: We adapted the techniques used previously to encapsulate breast cancer cells in 3D described in previous studies. This was done by using the regular h9e peptide hydrogel (1% wt=6 mM) in an aqueous solution. The peptide hydrogel-medium was prepared by directly mixing the aqueous h9e peptide solution with concentrated 2i plus LIF medium at 1:1 ratios for a final peptide concentration of 3 mM (600 Pa). […] Specifically, medium was made at 1.2× concentration for the 1:5 dilution, […] for the […] and 2× for the 1:1 dilution in the three h9e hydrogel concentrations. After mixing, the cells were added and the mixture was immediately added to the dish slowly to avoid air bubbles. The plates were then incubated for 30 min at 37° C. to permit gelation. To feed, 1× concentration 2i plus LIF medium was added slowly to the top of the hydrogel. To pass, the media was pipetted up and down by adding 1-2 ml of PBS more forcefully to shear the gel, and the liquefied contents were then added to a tube and diluted to a concentration that was below that which permitted gelation. The colonies were pelleted by low speed centrifugation (100×g for 5 min at room temperature), washed with calcium and magnesium free PBS, and then trypsinized to single cells by addition of trypsin EDTA for 5 min. Enzymatic reaction was terminated by dilution with PBS and 2 washing steps. The PSCs were suspended in a small volume of medium, added to the 1× hydrogel-medium solution, and re-plated at the desired concentration. Alkaline phosphatase staining, Immunofluorescence staining: Karyotyping, Embryoid body formation, Gene expression analysis were performed to determine the differentiation properties.

[3] = Rheology of h9e/HSA hydrogel formation; format: physicochemical
Procedure: For albumin triggered hydrogel formation, 10 mM (1.74 wt %) peptide was first dissolved in 100 mM NaHCO3 solution. BSA and HSA were dissolved in water with 5 wt % concentration. The peptide solution and albumin solution were then mixed at different ratios for final mixtures of 1, 2, 3 mM h9e peptide with albumin from 0.1 to 5 wt %.
The storage (G′) and loss (G″) moduli of h9e hydrogels with different peptide/albumin ratios were measured on a rheometer system C-VOR 150 (Malvern instruments, Malvern, Worcestershire WR141XZ, United Kingdom) with a 20 mm diameter parallel plate test system. All rheological tests were carried out at 37° C. To determine the hydrogel forming rate, the peptide and albumin mixture was placed on the measuring system immediately after preparation and tested by a single frequency (1 Hz) method with steady shear strain (1%) for 1 hour

[4] = test system: female mice of FVB; assay: Immune response after subcutaneous injection of hydrogel in mice; format: in vivo, mouse
Procedure: Hydrogel: 1% h9e peptide was prepared in sodium bicarbonate solution, and 1% BSA was prepared in PBS solution as trigger solution. The h9e peptide solution and BSA solution was mixed at 1:1 volume ratio, and incubated at 37° C. for 30 min to prepare hydrogel with 0.5% h9e peptide concentration and 0.5% BSA with a gel strength of about 450 Pa.
Experiment: In trials #1 and #2, healthy female mice of FVB 6-15 week old were injected subcutaneously in the inguinal region with 100 or 200 uL of the hydrogel or control solutions in a blinded study. Weight and external body temperature were measured daily for up to 2 weeks.
Mammary fat pads from the inguinal region were removed at necropsy. Tissues were fixed with 10% formalin and processing for a 5 um thickness sectioning. Samples were stained with hematoxylin and eosin (H&E). Hydrogel trial 3 was completed in the same manner described above with the following exceptions. 200 uL of hydrogel or control solutions were injected subcutaneously on the back of the animal.
Microscope slide preparation: Samples of the control, and hydrogel treated tissues were submitted for histopath processing at Diagnostic Laboratory at KSU Veterinary School in Mosier Hall. Slides and paraffin blocks were labeled 1 as control and 4 as hydrogel treated, respectively. Adipose tissue samples were processed on the Sakua Tissue-Tek VIP 6, model #VIP6-A1. Then, the samples were then embedded using the Sakura Tissue-Tek Tissue Embedding Console System model #4710. For microscope slide preparation, the paraffin blocks were cut on a 1215 Leitz Rotary Microtome and sectioned at 5 microns. Sections were then mounted on a microscope slide from a water bath. H&E staining of the slides done on an automated stainer, Leica Autostainer XL, model #ST5060. Lastly, the stained slides are covered slipped by an automatic coverslippper, Leica CV5030.
Inflammatory analysis: The fixed tissues of animals without treatment, treated with PBS buffer and h9e hydrogel were further analyzed for inflammatory effects including VWF8 (blood vessel), Arginase I (wound healing macrophage), Fspl and α-smooth muscle actin (fibroblast), CCL2 (pro-inflammatory cytokine), and TGF-beta (immunosuppressive cytokine). 796 (FVB normal mammary gland) was used as negative control. Image J arbitrary unit was used to evaluate these tests using Image J software.

Substance: H-FLIVIGSIIGPGGDGPGGD-NH2 [h9e, FLIVIGSIIGPGGDGPGGD]
- control of hemorrhage versus sterile saline negative control [1]: effective in controlling hemorrhage
- serial passages maintained in the undifferentiated state (Oct4, Nanog, Sox2, SSEA-1 staining) ([2]; 3 mM h9e hydrogel, 3D culture): at least 25 serial passages
- proliferation of encapsulated rat pluripotent stem cells ([2]; 3 mM hydrogel): proliferated well
- alkaline phosphatase staining after more than 25 passages ([2]; 3D culture in hydrogel): not affected
- spontaneous differentiation on the colony edges ([2]; rat ESC or rat iPSC cultures): never observed
- hydrogel formation ([3]; 3 mM h9e peptide mixed with 5 wt % HSA): hydrogel was formed
- hydrogel formation ([3]; peptide concentration 1 mM or HSA concentration 0.5 wt %): Hydrogel did not form
- inflammatory effects compared to controls ([4]; 0.5% h9e/0.5% BSA hydrogel, subcutaneous, mice): No significant inflammatory effects
- histological images, hydrogel treated versus control ([4]; H&E staining): no significant difference
- absorption of hydrogel at necropsy ([4]; trial 3, 200 uL subcutaneously on the back): complete absorption of hydrogel
- daily activity of treated animals ([4]; up to 2 weeks): same normal daily activity
